The target of one assay is T1, mHTT (Homo sapiens, UniProt P42858).
T1 construct: host or cells: ST HDH Q111/111 mouse striatal cell line (knock-in locus)
In words: mHTT levels in striatal cells (immunocytochemistry). In kind it is cell-based, mouse. As to conditions: STHdh 111/111; for mHTT after treatment / remaining activity at 10 µM: 10 µM, 3 hours heat shock, 48 hours treatment, percentage in comparison to untreated STHdh 111/111, 3B5H10 antibody; for remaining activity at 10 µM: read-out: mHTT after treatment. The protocol: (§1) Staining - Cells were permeabilized with 0.3% Triton X-100 in 4 °C PBS (pH 7.4 from ThermoFisher) for 10 minutes. Then the cells were washed two times with 4 °C PBS. Subsequently, cells are blocked with 3% NGS (normal goat serum from Thermo Fisher) in 4 ° C PBS for 1 hour. Cells were incubated with primary antibodies in blocking buffer (PBS, 3% NGS, 0.02% NaN3) over night at 4 °C. Primary antibodies were mouse antipolyglutamine monoclonal antibody 3B5H10 (Sigma-Aldrich) at 1:250 dilution and Guinea Pig anti-MAP2 polyclonal antibody (Synaptic Systems) at 1:500 dilution. 3B5H10 binds to diffuse mHTT. Diffuse mHTT is a monomeric and small oligomeric mHTT. Diffuse mHTT is correlated to pathological parameters in Huntington's disease. Compounds that bind the mHTT will reduce the levels of diffuse mHTT detected.
Cells were washed 2 times with 4 °C PBS, and then incubated with secondary antibodies at 1:2000 dilution in blocking buffer for 1hour at room temperature. […] Cells were washed 2 times with 4 °C PBS, and then the nuclei were counterstain with DAPI (ThermoFisher) for 10 min at room temperature in the dark. Cells were washed 2 times with 4 °C PBS, and then 4 °C PBS was added to cells and then images were acquired. […] Table 11: Antibodies Used in Immunocytochemistry Studies
Fluorescence Imaging - Imaging sessions were performed on a confocal microscope system (Carl Zeiss Microscopy) equipped with a dual spinning disk unit (Yokogawa). All components of the imaging system were controlled via the ZEN 2 software suite (Carl Zeiss Microscopy). The laser lines used were 405 nm, 488 nm and 639 nm to excite DAPI or the respective fluorophores. […] Nested t test was performed to calculate the significance amongst repeated measurements using GraphPad Prism software.
as §1, with “For LC3 staining primary antibodies were mouse anti-LC3 mab (5F10) (nanoTools) at 1:500 dilution” for “3B5H10 binds to diffuse mHTT. Diffuse mHTT is a monomeric”, “Guinea Pig anti-MAP2 polyclonal antibody (Synaptic Systems) at 1:500 dilution.” for “small oligomeric mHTT. Diffuse mHTT is correlated to pathological parameters in Huntington's disease. Compounds that bind the mHTT will reduce the levels of diffuse mHTT detected.”
Cells were washed 2 times with 4 °C PBS, and then incubated with secondary antibodies at 1:2000 dilution in blocking buffer for 1hour at room temperature. […] Cells were washed 2 times with 4 °C PBS, and then the nuclei were counterstain with DAPI (ThermoFisher) for 10 min at room temperature in the dark. Cells were washed 2 times with 4 °C PBS, and then 4 °C PBS was added to cells and then images were acquired.
EC 50 value was determined with non-linear regression.

Assay [1] has as its system STHdh 111/111 striatal cells. In words: Cell viability after heat shock (CellTiter Glo). As to conditions: Mus musculus, read-out: Cell Viability striatal cells 3h heat shocked. (In general: ATP-based viability assays read luminescence as a measure of living cells.)
Protocol: Cell culture - ST HDH Q111/111 (CH00095, Coriell Institute) striatal derived cell line were grown at 33°C in DMEM (Sigma-Aldrich), supplemented with 10% fetal bovine serum (FBS), 1% Penicillin-Streptomycin (ThermoFisher Scientific), and 0.4 mg/ml G418 (Geneticin; Invitrogen). ST HDH Q111/111 are mouse striatal cells with polyQ length of 111.
Pre-Treatment of striatal cell line - First the medium was removed and new DMEM (DMEM, high glucose, HEPES, no phenol red) medium, supplemented with 10% fetal bovine serum (FBS), 1% Penicillin-Streptomycin, containing 10 µM compound was added. The cells were incubated at 33 °C for 24 hours.
Heat shock - Cells were heat shocked for 3 hours at 41 °C.
Treatment - Medium was removed and new DMEM (DMEM, high glucose, HEPES, no phenol red) medium, supplemented with 1% fetal bovine serum (FBS), 1% Penicillin-Streptomycin, containing 10 µM compound was added. The cells were incubated at 33 °C for 48 hours.
Cell Viability - Cell viability was measured according to manufacturer recommendations with CellTiter Glo (Promega).
A further assay concerns STHdh 7/7 striatal cells. In words: Cell viability after heat shock (CellTiter Glo). To be noted: Mus musculus, 48 hours treatment, percentage in comparison to pre-heat shock cell viability, read-out: Cell Viability striatal cells 3h heat shocked. In kind it is cell-based. The protocol: RESULTS-Table 12bsummarizes the effect of the compounds on cell viability. STHdh 7/7 were heat shocked for 3 hours and treated for 48 hours with small molecule compounds. Table 12b lists the cell viability in striatal cells after 48 hours.
Effect of Compound 22 on Cell Viability of Wildtype Striatal Neurons - STHdh 7/7 cells are striatal cells that express wildtype huntingtin. These cells were cultured in the same conditions as described above for STHdh 111/111. The neurons were first heat shocked for 3 hours at 41 °C as described above. After 48 hours of treatment with the small molecule Compounds, cell viability was determined using the method described above. The "buffer" control is represents cells treated with a buffer only, without any compounds added. Some of the compounds show higher cell viability in comparison to control heat shocked STHdh 7/7 neurons with buffer and no treatment (Figure 5).

The next assay relates to Mur16 and/or Mur46. In words: Biacore Surface Plasmon Resonance (SPR) screening, binding to the target structures. As to conditions: for Binding properties: third analog screening, binding to the target structure in comparison to parent compound. The protocol: Exon 1 of the HTT huntingtin (NCBI Gene ID 3064) was expressed as a fusion protein with (i) TRX only (MurTRX); (ii) 16Q (Mur16); and (iii) 46Q (Mur46). MurTRX, Mur16, and Mur46 were produced and purified by HIStag and size exclusion chromatography (SEC). The protocol for MurTRX, Mur16 and Mur46 expression was adopted from Bennett, M.J. et al. Proc. Natl. Acad. Sci. USA 99, 11634-11639. 2002.
Primary Screen - Results - 39 compounds determined from the in-silico screen were tested. Following solvent correction and blank subtraction, double referenced binding levels for samples were plotted against binding levels on both Mur 16 and Mur 46. […] The 4 compounds consistently bind with a higher response on the 16 Q surface than the 46 Q repeat surface, despite the MAb positive control showing the opposite trend.
(Surface plasmon resonance follows binding to a sensor surface in real time, without labels.)

Another assay has as its target Exon1 Q46 (Homo sapiens, UniProt P42858, INS38QQQQQQQQQQQQQQQQQQQQQQQQQ). In words: Circular dichroism study. To be noted: Exon1 Q46. In kind it is binding. As to the method:
Protein samples were diluted with buffer to 7.5 µM prior to Circular Dichroism (CD) measurements. Measurements were conducted at room temperature.
Four spectra at each measurement were taken every 1 nm from 200 to 260 nm, scanning at 50 nm/min with an averaging time of 1 sec. Spectra were obtained from samples in 20 mM phosphate, pH 7.4. Ten scans were averaged for each sample spectrum
Single-wavelength readings at 222 nm were obtained. After subtraction of the Trx contribution, the α-helical content of Httex1 was estimated from its mean residue ellipticity (MREHttex1) at 222 nm. This calculation was conducted as described by Bravo-Arredondo (Bravo-Arredondo, J.M. et al., J Biol Chem. 2018 Dec 21;293(51):19613-19623).
MRE Exon-1 Q16 and Q46 (Mean Residue Ellipticity) was measured every 1 sec for 300 sec; the 301 readings for each sample were averaged and MRE Trx subtracted. The number of amino acids in each sample to experience a change in helicity was estimated using a previously developed helix-coil transition model, which gave the change in fraction of helicity (ΔfHelix) by the following equation: fHelix = (MREHttex1 −MRECoil)/(MREHelix −MRECoil) [formula] where MRE Exon1 Q26 or Q46 (MREHttex1 in the formula) describes the helix-coil transition, obtained from the difference between MRE Eon1 Q26 or Q46 at 222 nm of the fusion protein at the given temperature (in our case 37 °C) and the product of MRE Trx at 222 nm at the same temperature and the fraction of residues comprised by Trx in that particular construct, and MRECoil = 2220−53T,MREHelix =; (−44,000+250T)(1−(3)/(Nr)) [formula] given T as the temperature in °C and Nr as the number of residues.
In order to calculate an equilibrium of the two states model, percent α-helicity was calculated using the relation of MREHttex1 = 0 and -34700 (deg cm^2 dmol^-1) for 0% and 100% helicity, respectively. Table 14: Comparison between Kd, reversal of conformational changes of Exon1 Q46 and reduction of mHTT in comparison to untreated striatal neurons
The CD measurements protocol for Compound 101 was the same as outlined above except that from 206 nm - 210 nm and 220 nm - 224 nm, the step size was 0.2 nm, and the bandwidth was 1nm.
On the technique in general: CD spectra are sensitive to the conformation of chiral molecules.

Like-named read-outs stand apart in the source and are kept apart here.

T1 sequence (P42858 with tags, fused parts or gaps with the stated changes): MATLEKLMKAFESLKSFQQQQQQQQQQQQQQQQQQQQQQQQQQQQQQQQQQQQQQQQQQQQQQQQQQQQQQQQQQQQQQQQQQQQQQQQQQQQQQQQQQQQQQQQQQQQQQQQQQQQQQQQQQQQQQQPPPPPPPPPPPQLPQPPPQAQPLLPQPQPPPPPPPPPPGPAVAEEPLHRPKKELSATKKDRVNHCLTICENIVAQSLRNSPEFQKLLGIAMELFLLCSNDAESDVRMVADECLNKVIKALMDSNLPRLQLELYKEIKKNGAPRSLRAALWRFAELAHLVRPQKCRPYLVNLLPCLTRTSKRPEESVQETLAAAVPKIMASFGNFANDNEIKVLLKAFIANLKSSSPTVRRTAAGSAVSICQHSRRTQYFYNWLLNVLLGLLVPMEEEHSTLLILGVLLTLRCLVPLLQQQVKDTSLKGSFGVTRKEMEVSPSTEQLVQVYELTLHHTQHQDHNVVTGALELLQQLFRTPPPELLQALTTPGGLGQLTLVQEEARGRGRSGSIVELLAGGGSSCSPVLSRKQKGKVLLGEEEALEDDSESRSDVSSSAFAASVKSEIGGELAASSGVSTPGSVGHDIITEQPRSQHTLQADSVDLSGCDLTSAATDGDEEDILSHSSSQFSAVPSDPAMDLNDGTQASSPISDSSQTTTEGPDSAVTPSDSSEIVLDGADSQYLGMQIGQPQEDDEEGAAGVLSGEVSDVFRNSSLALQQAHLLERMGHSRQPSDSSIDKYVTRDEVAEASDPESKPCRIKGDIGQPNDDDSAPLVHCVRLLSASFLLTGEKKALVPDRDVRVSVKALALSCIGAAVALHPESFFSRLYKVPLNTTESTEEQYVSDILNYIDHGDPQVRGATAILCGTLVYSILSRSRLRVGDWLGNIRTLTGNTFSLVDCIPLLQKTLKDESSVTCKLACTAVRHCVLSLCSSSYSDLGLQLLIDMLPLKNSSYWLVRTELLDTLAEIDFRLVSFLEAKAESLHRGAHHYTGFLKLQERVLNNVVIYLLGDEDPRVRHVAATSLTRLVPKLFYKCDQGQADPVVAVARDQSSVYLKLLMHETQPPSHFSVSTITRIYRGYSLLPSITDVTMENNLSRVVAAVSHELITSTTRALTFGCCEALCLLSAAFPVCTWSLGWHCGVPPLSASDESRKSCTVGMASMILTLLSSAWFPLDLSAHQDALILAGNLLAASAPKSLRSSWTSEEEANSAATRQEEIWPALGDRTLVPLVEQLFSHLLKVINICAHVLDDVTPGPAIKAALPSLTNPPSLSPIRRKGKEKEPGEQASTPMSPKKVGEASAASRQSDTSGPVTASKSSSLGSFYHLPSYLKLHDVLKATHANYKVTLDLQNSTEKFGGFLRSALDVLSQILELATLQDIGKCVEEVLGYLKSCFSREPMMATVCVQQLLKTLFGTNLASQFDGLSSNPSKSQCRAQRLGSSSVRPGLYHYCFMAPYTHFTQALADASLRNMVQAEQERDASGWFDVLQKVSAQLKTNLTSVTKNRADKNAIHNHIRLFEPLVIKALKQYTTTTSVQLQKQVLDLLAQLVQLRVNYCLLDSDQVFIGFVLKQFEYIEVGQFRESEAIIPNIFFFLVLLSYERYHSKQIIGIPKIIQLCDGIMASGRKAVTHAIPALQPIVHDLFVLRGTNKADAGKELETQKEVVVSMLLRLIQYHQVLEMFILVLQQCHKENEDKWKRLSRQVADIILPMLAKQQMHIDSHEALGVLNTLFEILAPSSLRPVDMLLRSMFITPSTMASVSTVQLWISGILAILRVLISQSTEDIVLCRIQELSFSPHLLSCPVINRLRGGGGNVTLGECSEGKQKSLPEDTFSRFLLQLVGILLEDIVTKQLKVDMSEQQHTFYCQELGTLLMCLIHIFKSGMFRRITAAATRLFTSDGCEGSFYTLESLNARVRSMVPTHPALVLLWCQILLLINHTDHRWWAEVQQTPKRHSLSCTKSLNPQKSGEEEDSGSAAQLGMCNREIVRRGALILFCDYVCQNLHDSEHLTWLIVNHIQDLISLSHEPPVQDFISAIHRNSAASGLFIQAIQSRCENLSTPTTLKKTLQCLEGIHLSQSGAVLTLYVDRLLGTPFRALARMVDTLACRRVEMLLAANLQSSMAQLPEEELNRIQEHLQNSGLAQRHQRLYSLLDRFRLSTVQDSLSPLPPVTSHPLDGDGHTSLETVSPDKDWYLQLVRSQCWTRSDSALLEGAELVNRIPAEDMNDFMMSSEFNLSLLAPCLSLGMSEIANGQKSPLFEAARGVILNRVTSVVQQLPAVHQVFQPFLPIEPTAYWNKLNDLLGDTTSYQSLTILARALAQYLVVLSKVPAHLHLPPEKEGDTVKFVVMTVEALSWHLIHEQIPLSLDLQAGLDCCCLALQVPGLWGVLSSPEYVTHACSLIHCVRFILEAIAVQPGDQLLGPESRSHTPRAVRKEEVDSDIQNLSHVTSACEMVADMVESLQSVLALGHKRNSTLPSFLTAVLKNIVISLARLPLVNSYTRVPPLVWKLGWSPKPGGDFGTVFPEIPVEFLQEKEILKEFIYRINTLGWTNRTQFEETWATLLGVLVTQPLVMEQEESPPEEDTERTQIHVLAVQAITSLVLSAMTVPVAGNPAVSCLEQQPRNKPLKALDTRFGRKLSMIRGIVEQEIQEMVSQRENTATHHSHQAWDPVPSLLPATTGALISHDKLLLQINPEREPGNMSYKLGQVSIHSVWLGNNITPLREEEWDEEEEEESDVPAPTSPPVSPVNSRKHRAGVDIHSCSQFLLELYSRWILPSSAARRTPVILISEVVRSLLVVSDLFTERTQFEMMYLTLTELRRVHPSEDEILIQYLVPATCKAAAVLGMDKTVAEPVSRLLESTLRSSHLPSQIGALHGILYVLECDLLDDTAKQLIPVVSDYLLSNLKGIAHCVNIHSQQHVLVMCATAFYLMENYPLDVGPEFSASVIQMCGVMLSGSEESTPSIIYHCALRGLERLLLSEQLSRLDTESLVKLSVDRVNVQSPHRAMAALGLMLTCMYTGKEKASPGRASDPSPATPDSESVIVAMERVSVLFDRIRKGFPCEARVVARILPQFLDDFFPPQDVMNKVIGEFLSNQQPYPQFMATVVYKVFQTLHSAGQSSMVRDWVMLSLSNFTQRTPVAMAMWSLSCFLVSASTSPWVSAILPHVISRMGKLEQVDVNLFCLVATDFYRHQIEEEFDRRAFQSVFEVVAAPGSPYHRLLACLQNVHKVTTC
Chain of Exon1 Q46 (P42858 with tags, fused parts or gaps with the stated changes): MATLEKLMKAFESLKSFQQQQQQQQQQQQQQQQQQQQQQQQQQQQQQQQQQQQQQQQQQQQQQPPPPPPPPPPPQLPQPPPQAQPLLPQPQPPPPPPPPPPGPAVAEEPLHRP

The compound `CCc1[nH]c2ccc(C(=O)NCCN3CCN(C)CC3)cc2c1C` [Compound 9] returned a mHTT after treatment on mHTT of 37%. The viability at 10 µM in assay [1] (48 h) was 88%.

For the compound `Cc1[nH]c2ccc(C(=O)NCCN3CCN(C)CC3)cc2c1C` [Compound 24], on mHTT, the remaining activity at 10 µM came to 47%. In addition, in assay [1], the viability at 10 µM came to 103%.

For `Cc1[nH]c2ccc(C(=O)NCCN3CCOCC3(C)C)cc2c1C` [Compound 28], the viability at 10 µM was determined as 52.4% in the assay on STHdh 7/7 striatal cells and 18% in assay [1]. The remaining activity at 10 µM on mHTT came out at 51%.

For `CC(C)N(CCNC(=O)c1ccc2[nH]c3c(c2c1)CCCC3)C(C)C` [Compound 34], on mHTT, the mHTT after treatment amounted to 56%. The viability at 10 µM in assay [1] (48 h) turned out to be 60%.

Take `O=C(NCCN1CCCCC1)c1ccc2[nH]c3c(c2c1)CCC3` [Compound 35]: the remaining activity at 10 µM on mHTT was 56%. Further, in assay [1], the viability at 10 µM came to 103%.

With `Cc1c(C)n(C)c2ccc(C(=O)NCCN(C(C)C)C(C)C)cc12` [Compound 39], the results for the viability at 10 µM (in the assay with STHdh 7/7 striatal cells; in assay [1] (48 h)) were 154% and 117%, respectively.

`Cc1[nH]c2ccc(C(=O)NCCNC(C)(C)C)cc2c1C` [Compound 50]: the viability at 10 µM in the assay on STHdh 7/7 striatal cells is 40.9%; in assay [1], 67%. For the same compound, the remaining activity at 10 µM on mHTT amounted to 72%.

The compound `Cc1[nH]c2ccc(C(=O)NCCN(C)C3CCCC3)cc2c1C` [Compound 55] gave a mHTT after treatment at mHTT of 91%. Besides, the viability at 10 µM in assay [1] (48 h) was 67%.

Consider `CC(C)N(CCNC(=O)c1ccc2[nH]c3c(c2c1)CCCC3)C(C)C` [Compound 57], for which the Binding properties result with Mur16 and/or Mur46 is “++”.

Regarding `Cc1[nH]c2ccc(C(=O)NC3CCC(N(C)C)CC3)cc2c1C` (stereo not drawn) [Compound 101, N-(4-(dimethylamino)cyclohexyl)-2,3-dimethyl-1H-indole-5-carboxamide], the equilibrium dissociation constant (Kd) at Exon1 Q46 came out at 70 nM. Also, the “Fraction Helix fH” value was 20.5% at Exon1 Q46 (conc. Compound 0.01 µM); 20.1% at Exon1 Q46 (conc. Compound 0.059 µM); 19.9% on Exon1 Q46 (conc. Compound 0.158 µM); 19.1% at Exon1 Q46 (conc. Compound 0.647 µM); 19.0% at Exon1 Q46 (conc. Compound 1.62 µM); 18.5% on Exon1 Q46 (conc. Compound 4.04 µM). Further, the “Fraction Helix fH” value on Exon1 Q46 (conc. Compound 13.68 µM) is listed as 18.7%; at Exon1 Q46 (conc. Compound 37.77 µM), 18.2%. The “mHTT after 3 h heat shock and following 48 hours of compound treatment in comparison to untreated STHdh 111/111” value on mHTT was determined as 38%. The remaining activity at 10 µM on mHTT is 38%.

For `Cc1[nH]c2ccc(C(=O)Nc3ccccc3NC3CCN(C)CC3)cc2c1C` [Compound 103], the Binding properties result in the assay on Mur16 and/or Mur46 is recorded as “++”.

As to `Cc1[nH]c2ccc(C(=O)NCCN(C)C3CCCC3)cc2c1C` [Compound 105], the Binding properties result in the assay with Mur16 and/or Mur46 is “++”.

In the assay with Mur16 and/or Mur46 (primary screen, compounds that demonstrated binding to Mur16 and/or Mur46), `O=C(O)C1Cc2c([nH]c3ccccc23)C(c2cccc(Br)c2)N1` (stereo not drawn) [Compound 109] gave a Biacore affinity of 3 RU^2.

In the case of `CON1CCC(NC(=O)c2ccc3[nH]c(C)c(C)c3c2)CC1` [Compound 115], the viability at 10 µM in the assay with STHdh 7/7 striatal cells is 136%.

Consider `CCN(CC)C(=O)CNC(=O)c1ccc2[nH]c(C)c(C)c2c1` [Compound 116], for which the viability at 10 µM in the assay with STHdh 7/7 striatal cells came to 118%.

For the compound `Cc1[nH]c2ccc(C(=O)N(C)CCN3C[C@@H](C)O[C@@H](C)C3)cc2c1C` [Compound 117], the viability at 10 µM with STHdh 7/7 striatal cells turned out to be 118%.

Regarding `Cc1c(C)n(Cc2ccccc2)c2ccc(C(=O)NCCN(C)C)cc12` [Compound 118], the viability at 10 µM in the assay with STHdh 7/7 striatal cells came to 110%.

For `Cc1[nH]c2ccc(C(=O)N3CCN(C(C)C)CC3)cc2c1C` [Compound 119], the viability at 10 µM in the assay with STHdh 7/7 striatal cells amounted to 101%.

With `COC[C@H](CCNC(=O)c1ccc2[nH]c(C)c(C)c2c1)OC` [Compound 120], in the assay on STHdh 7/7 striatal cells, the viability at 10 µM amounted to 100%.

Turning to `Cc1[nH]c2ccc(C(=O)NCC(C)(C)OCC3CC3)cc2c1C` [Compound 121], in the assay on STHdh 7/7 striatal cells, the viability at 10 µM stood at 100%.

As to `CCN(CC)CCNCc1ccc2[nH]c(C)c(C)c2c1` [Compound 122], the viability at 10 µM with STHdh 7/7 striatal cells worked out at 91.2%.

With `CCN(CCNC(=O)c1ccc2[nH]ccc2c1)C1CC1` [Compound 123], the viability at 10 µM in the assay with STHdh 7/7 striatal cells is 83.8%.

For `CO[C@@H](CNC(=O)c1ccc2[nH]c(C)c(C)c2c1)C(C)C` [Compound 124], the viability at 10 µM with STHdh 7/7 striatal cells is 76.2%.

For the compound `Cc1[nH]c2ccc(C(=O)N(C)CCNC(=O)C(C)C)cc2c1C` [Compound 125], the viability at 10 µM in the assay with STHdh 7/7 striatal cells was 67.9%.

As for `Cc1[nH]c2ccc(C(=O)N3CCCN(C(C)C)CC3)cc2c1C` [Compound 126], in the assay on STHdh 7/7 striatal cells, the viability at 10 µM stood at 42.5%.

By viability is commonly meant a read-out of living cells in per cent, often relative to untreated cells. The Kd is the free concentration of one partner at which half of the binding sites on the other are occupied at equilibrium, for simple one-to-one binding. Lower therefore signals higher affinity.

The values are drawn from patent EP4140481A1, “PROTEIN-OLIGOMER BINDING AGENTS AND THERAPEUTIC USES THEREOF” (Galyan Bio, Inc., priority 2021, dated 2023).
